{"source": "PubChem BioAssay (NCI)", "test_in_all_cases": "NCI tumour cell line growth inhibition, 48 h", "key": {"[1]": {"test_system": "MOLT-4 leukemia"}, "[2]": {"test_system": "RXF 393 renal"}, "[3]": {"test_system": "NCI-H226 lung"}, "[4]": {"test_system": "SNB-75 CNS"}, "[5]": {"test_system": "TK-10 renal"}, "[6]": {"test_system": "K-562 leukemia"}, "[7]": {"test_system": "NCI-H460 lung"}, "[8]": {"test_system": "SK-MEL-2 melanoma"}, "[9]": {"test_system": "NCI-H23 lung"}, "[10]": {"test_system": "SNB-19 CNS"}, "[11]": {"test_system": "BT-549 breast"}, "[12]": {"test_system": "PC-3 prostate"}, "[13]": {"test_system": "OVCAR-4 ovarian"}, "[14]": {"test_system": "CAKI-1 renal"}, "[15]": {"test_system": "HT29 colon"}, "[16]": {"test_system": "SK-OV-3 ovarian"}, "[17]": {"test_system": "UO-31 renal"}, "[18]": {"test_system": "HS 578T breast"}, "[19]": {"test_system": "HCT-116 colon"}, "[20]": {"test_system": "UACC-62 melanoma"}, "[21]": {"test_system": "IGROV1 ovarian"}, "[22]": {"test_system": "NCI/ADR-RES ovarian"}, "[23]": {"test_system": "SF-295 CNS"}, "[24]": {"test_system": "KM12 colon"}, "[25]": {"test_system": "OVCAR-5 ovarian"}, "[26]": {"test_system": "SW-620 colon"}, "[27]": {"test_system": "EKVX NSCLC"}, "[28]": {"test_system": "UACC-257 melanoma"}, "[29]": {"test_system": "HOP-62 NSCLC"}, "[30]": {"test_system": "786-0 renal"}, "[31]": {"test_system": "MCF7 breast"}, "[32]": {"test_system": "MDA-MB-231 breast"}, "[33]": {"test_system": "T-47D breast"}, "[34]": {"test_system": "CCRF-CEM leukemia"}, "[35]": {"test_system": "ACHN renal"}, "[36]": {"test_system": "MDA-MB-435"}, "[37]": {"test_system": "LOX IMVI melanoma"}, "[38]": {"test_system": "A549 NSCLC"}, "[39]": {"test_system": "M14 melanoma"}, "[40]": {"test_system": "SK-MEL-28 melanoma"}, "[41]": {"test_system": "OVCAR-3 ovarian"}, "[42]": {"test_system": "HOP-92 NSCLC"}, "[43]": {"test_system": "U251 CNS"}, "[44]": {"test_system": "HCT-15 colon"}, "[45]": {"test_system": "NCI-H522 lung"}, "[46]": {"test_system": "HCC-2998 colon"}, "[47]": {"test_system": "SF-268 CNS"}, "[48]": {"test_system": "RPMI-8226 leukemia"}, "[49]": {"test_system": "SK-MEL-5 melanoma"}, "[50]": {"test_system": "COLO 205 colon"}, "[51]": {"test_system": "DU-145 prostate"}, "[52]": {"test_system": "SN12C renal"}, "[53]": {"test_system": "OVCAR-8 ovarian"}}, "note": "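Tested at 5 concentrations; 48 h exposure; 96-well plates; endpoints linearly interpolated, else capped at highest concentration. GI50 marks 50% less growth. TGI is the concentration that stops growth completely.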", "data": [{"molecule": "O=C1C=Cc2cc3ccccc3c3cccc1c23", "values": [{"measurement": "GI50", "setting": "[1]", "value": 5.03, "unit": "µM"}, {"measurement": "TGI", "setting": "[1]", "value": "> 100", "unit": "µM"}, {"measurement": "GI50", "setting": "[2]", "value": 2.71, "unit": "µM"}, {"measurement": "TGI", "setting": "[2]", "value": 8.62, "unit": "µM"}, {"measurement": "GI50", "setting": "[3]", "value": 2.61, "unit": "µM"}, {"measurement": "TGI", "setting": "[3]", "value": 10, "unit": "µM"}, {"measurement": "GI50", "setting": "[4]", "value": 11.8, "unit": "µM"}, {"measurement": "TGI", "setting": "[4]", "value": 72.3, "unit": "µM"}, {"measurement": "GI50", "setting": "[5]", "value": 9.55, "unit": "µM"}, {"measurement": "TGI", "setting": "[5]", "value": 42.3, "unit": "µM"}, {"measurement": "GI50", "setting": "[6]", "value": 5.59, "unit": "µM"}, {"measurement": "TGI", "setting": "[6]", "value": "> 100", "unit": "µM"}, {"measurement": "GI50", "setting": "[7]", "value": 3.37, "unit": "µM"}, {"measurement": "TGI", "setting": "[7]", "value": 11.6, "unit": "µM"}, {"measurement": "GI50", "setting": "[8]", "value": 27.6, "unit": "µM"}, {"measurement": "TGI", "setting": "[8]", "value": "> 100", "unit": "µM"}, {"measurement": "GI50", "setting": "[9]", "value": 2.57, "unit": "µM"}, {"measurement": "TGI", "setting": "[9]", "value": 9.95, "unit": "µM"}, {"measurement": "GI50", "setting": "[10]", "value": 8.51, "unit": "µM"}, {"measurement": "TGI", "setting": "[10]", "value": "> 100", "unit": "µM"}, {"measurement": "GI50", "setting": "[11]", "value": 9.66, "unit": "µM"}, {"measurement": "TGI", "setting": "[11]", "value": 51.9, "unit": "µM"}, {"measurement": "GI50", "setting": "[12]", "value": 3.47, "unit": "µM"}, {"measurement": "TGI", "setting": "[12]", "value": 19.1, "unit": "µM"}, {"measurement": "GI50", "setting": "[13]", "value": 14.5, "unit": "µM"}, {"measurement": "TGI", "setting": "[13]", "value": "> 100", "unit": "µM"}, {"measurement": "GI50", "setting": "[14]", "value": 2.51, "unit": "µM"}, {"measurement": "TGI", "setting": "[14]", "value": 7.1, "unit": "µM"}, {"measurement": "GI50", "setting": "[15]", "value": 7.29, "unit": "µM"}, {"measurement": "TGI", "setting": "[15]", "value": "> 100", "unit": "µM"}, {"measurement": "GI50", "setting": "[16]", "value": 19.5, "unit": "µM"}, {"measurement": "TGI", "setting": "[16]", "value": "> 100", "unit": "µM"}, {"measurement": "GI50", "setting": "[17]", "value": 7.31, "unit": "µM"}, {"measurement": "TGI", "setting": "[17]", "value": "> 100", "unit": "µM"}, {"measurement": "GI50", "setting": "[18]", "value": 4.09, "unit": "µM"}, {"measurement": "TGI", "setting": "[18]", "value": 11.7, "unit": "µM"}, {"measurement": "GI50", "setting": "[19]", "value": 3.16, "unit": "µM"}, {"measurement": "TGI", "setting": "[19]", "value": "> 100", "unit": "µM"}, {"measurement": "GI50", "setting": "[20]", "value": 1.81, "unit": "µM"}, {"measurement": "TGI", "setting": "[20]", "value": 6.43, "unit": "µM"}, {"measurement": "GI50", "setting": "[21]", "value": 8.42, "unit": "µM"}, {"measurement": "TGI", "setting": "[21]", "value": "> 100", "unit": "µM"}, {"measurement": "GI50", "setting": "[22]", "value": 3.33, "unit": "µM"}, {"measurement": "TGI", "setting": "[22]", "value": 19.2, "unit": "µM"}, {"measurement": "GI50", "setting": "[23]", "value": 7.65, "unit": "µM"}, {"measurement": "TGI", "setting": "[23]", "value": 35.8, "unit": "µM"}, {"measurement": "GI50", "setting": "[24]", "value": 12.1, "unit": "µM"}, {"measurement": "TGI", "setting": "[24]", "value": 35.6, "unit": "µM"}, {"measurement": "GI50", "setting": "[25]", "value": 3.44, "unit": "µM"}, {"measurement": "TGI", "setting": "[25]", "value": 27.5, "unit": "µM"}, {"measurement": "GI50", "setting": "[26]", "value": 5.22, "unit": "µM"}, {"measurement": "TGI", "setting": "[26]", "value": 72.9, "unit": "µM"}, {"measurement": "GI50", "setting": "[27]", "value": 2.55, "unit": "µM"}, {"measurement": "TGI", "setting": "[27]", "value": 8.92, "unit": "µM"}, {"measurement": "GI50", "setting": "[28]", "value": 4.29, "unit": "µM"}, {"measurement": "TGI", "setting": "[28]", "value": 19.2, "unit": "µM"}, {"measurement": "GI50", "setting": "[29]", "value": 2.12, "unit": "µM"}, {"measurement": "TGI", "setting": "[29]", "value": 29.5, "unit": "µM"}, {"measurement": "GI50", "setting": "[30]", "value": 4.29, "unit": "µM"}, {"measurement": "TGI", "setting": "[30]", "value": "> 100", "unit": "µM"}, {"measurement": "GI50", "setting": "[31]", "value": 5.26, "unit": "µM"}, {"measurement": "TGI", "setting": "[31]", "value": 37.7, "unit": "µM"}, {"measurement": "GI50", "setting": "[32]", "value": 4.72, "unit": "µM"}, {"measurement": "TGI", "setting": "[32]", "value": 29, "unit": "µM"}, {"measurement": "GI50", "setting": "[33]", "value": 21.2, "unit": "µM"}, {"measurement": "TGI", "setting": "[33]", "value": "> 100", "unit": "µM"}, {"measurement": "GI50", "setting": "[34]", "value": 4.35, "unit": "µM"}, {"measurement": "TGI", "setting": "[34]", "value": 18.3, "unit": "µM"}, {"measurement": "GI50", "setting": "[35]", "value": 2.06, "unit": "µM"}, {"measurement": "TGI", "setting": "[35]", "value": 7.39, "unit": "µM"}, {"measurement": "GI50", "setting": "[36]", "value": 16.3, "unit": "µM"}, {"measurement": "TGI", "setting": "[36]", "value": 70.7, "unit": "µM"}, {"measurement": "GI50", "setting": "[37]", "value": 2.87, "unit": "µM"}, {"measurement": "TGI", "setting": "[37]", "value": 12.2, "unit": "µM"}, {"measurement": "GI50", "setting": "[38]", "value": 1.43, "unit": "µM"}, {"measurement": "TGI", "setting": "[38]", "value": 22.8, "unit": "µM"}, {"measurement": "GI50", "setting": "[39]", "value": 15.7, "unit": "µM"}, {"measurement": "TGI", "setting": "[39]", "value": "> 100", "unit": "µM"}, {"measurement": "GI50", "setting": "[40]", "value": 10.5, "unit": "µM"}, {"measurement": "TGI", "setting": "[40]", "value": "> 100", "unit": "µM"}, {"measurement": "GI50", "setting": "[41]", "value": 3.9, "unit": "µM"}, {"measurement": "TGI", "setting": "[41]", "value": 19, "unit": "µM"}, {"measurement": "GI50", "setting": "[42]", "value": 1.11, "unit": "µM"}, {"measurement": "TGI", "setting": "[42]", "value": 6.29, "unit": "µM"}, {"measurement": "GI50", "setting": "[43]", "value": 4.38, "unit": "µM"}, {"measurement": "TGI", "setting": "[43]", "value": 43.1, "unit": "µM"}, {"measurement": "GI50", "setting": "[44]", "value": 3.21, "unit": "µM"}, {"measurement": "TGI", "setting": "[44]", "value": 18.6, "unit": "µM"}, {"measurement": "GI50", "setting": "[45]", "value": 8.6, "unit": "µM"}, {"measurement": "TGI", "setting": "[45]", "value": "> 100", "unit": "µM"}, {"measurement": "GI50", "setting": "[46]", "value": 0.413, "unit": "µM"}, {"measurement": "TGI", "setting": "[46]", "value": 3.18, "unit": "µM"}, {"measurement": "GI50", "setting": "[47]", "value": 4.55, "unit": "µM"}, {"measurement": "TGI", "setting": "[47]", "value": 27, "unit": "µM"}, {"measurement": "GI50", "setting": "[48]", "value": 2.62, "unit": "µM"}, {"measurement": "TGI", "setting": "[48]", "value": 8.5, "unit": "µM"}, {"measurement": "GI50", "setting": "[49]", "value": 2.73, "unit": "µM"}, {"measurement": "TGI", "setting": "[49]", "value": 5.87, "unit": "µM"}, {"measurement": "GI50", "setting": "[50]", "value": 8.41, "unit": "µM"}, {"measurement": "TGI", "setting": "[50]", "value": "> 100", "unit": "µM"}, {"measurement": "GI50", "setting": "[51]", "value": 9.53, "unit": "µM"}, {"measurement": "TGI", "setting": "[51]", "value": "> 100", "unit": "µM"}, {"measurement": "GI50", "setting": "[52]", "value": 2.71, "unit": "µM"}, {"measurement": "TGI", "setting": "[52]", "value": 11.3, "unit": "µM"}, {"measurement": "GI50", "setting": "[53]", "value": 3.3, "unit": "µM"}, {"measurement": "TGI", "setting": "[53]", "value": 16.7, "unit": "µM"}]}]}
